Results taken from patent US9661853B2, “Molecules having pesticidal utility, and intermediates, compositions, and processes, related thereto” (Dow AgroSciences LLC, priority 2015, dated 2017).

What was measured:
[1] = system: Beet Armyworm (Spodoptera exigua, LAPHEG); assay: Bioassay on Beet Armyworm (BAW), 128-well diet tray assay; assay type: in vivo; conditions: 168 h, 50 μg/cm^2 on artificial diet, second instar larvae, 25° C., five to seven days, average of eight wells, read-out: BAW % Control (or Mortality) rating
Protocol: (§1) Bioassays on Beet Armyworm (Spodoptera exigua, LAPHEG) (“BAW”) and Cabbage Looper (Trichoplusia ni, TRIPNI) (“CL”)
(§2) Certain molecules disclosed in this document were tested against BAW and CL using procedures described in the following examples. In the reporting of the results, the “BAW & CL Rating Table” was used (See Table Section).
Bioassays on BAW were conducted using a 128-well diet tray assay. One to five second instar BAW larvae were placed in each well (3 mL) of the diet tray that had been previously filled with 1 mL of artificial diet to which 50 μg/cm^2 of the test molecule (dissolved in 50 μL of 90:10 acetone-water mixture) had been applied (to each of eight wells) and then allowed to dry. Trays were covered with a clear self-adhesive cover, vented to allow gas exchange, and held at 25° C., 14:10 light-dark for five to seven days. Percent mortality was recorded for the larvae in each well; activity in the eight wells was then averaged. The results are indicated in the table entitled “Table ABC: Biological Results” (See Table Section).

[2] = system: Cabbage Looper (Trichoplusia ni, TRIPNI); assay: Bioassay on Cabbage Looper (CL), 128-well diet tray assay; assay type: in vivo; conditions: 168 h, 50 μg/cm^2 on artificial diet, second instar larvae, 25° C., five to seven days, average of eight wells, read-out: CL % Control (or Mortality) rating
Protocol: as §1, §2
Bioassays on CL were conducted using a 128-well diet tray assay. One to five second instar CL larvae were placed in each well (3 mL) of the diet tray that had been previously filled with 1 mL of artificial diet to which 50 μg/cm^2 of the test molecule (dissolved in 50 μL of 90:10 acetone-water mixture) had been applied (to each of eight wells) and then allowed to dry. Trays were covered with a clear self-adhesive cover, vented to allow gas exchange, and held at 25° C., 14:10 light-dark for five to seven days. Percent mortality was recorded for the larvae in each well; activity in the eight wells was then averaged. The results are indicated in the table entitled “Table ABC: Biological Results” (See Table Section).

| SMILES | mortality at 50 µg/cm2 [1] [%] | mortality at 50 µg/cm2 [2] [%] |
| --- | --- | --- |
| Cc1ccc(C(C)C)c(N2C(=O)CS/C2=N\C(=O)Nc2ccc(NCc3ncn(-c4ccc(OC(F)(F)F)cc4)n3)cc2F)c1 [F31, (Z)-1-(2-Fluoro-4-(((1-(4-(trifluoromethoxy)phenyl)-1H-1,2,4-triazol-3-yl)methyl)amino)phenyl)-3-(3-(2-isopropyl-5-methylphenyl)-4-oxothiazolidin-2-ylidene)urea] | 50 to 100 | 50 to 100 |
| CCCc1ccc(C)cc1N1C(=O)CS/C1=N\C(=O)Nc1ccc(NCc2ncn(-c3ccc(OC(F)(F)F)cc3)n2)cc1 [F29, (Z)-1-(3-(5-Methyl-2-propylphenyl)-4-oxothiazolidin-2-ylidene)-3-(4-(((1-(4-(trifluoromethoxy)phenyl)-1H-1,2,4-triazol-3-yl)methyl)amino)phenyl)urea] | 50 to 100 | 50 to 100 |
| Cc1ccc(C(C)C)c(N2C(=O)CS/C2=N\C(=O)Nc2ccc(NCc3ncn(-c4ccc(OC(F)(F)F)cc4)n3)nc2)c1 [F46, (Z)-1-(3-(2-isopropyl-5-methylphenyl)-4-oxothiazolidin-2-ylidene)-3-(6-(((1-(4-(trifluoromethoxy)phenyl)-1H-1,2,4-triazol-3-yl)methyl)amino)pyridin-3-yl)urea] | 50 to 100 | 50 to 100 |
| Cc1ccc(C(C)C)c(N2C(=O)CS/C2=N\C(=O)Nc2ccc(CN(C)c3ncn(-c4ccc(OC(F)(F)F)cc4)n3)cc2F)c1 [F22, (Z)-1-(2-Fluoro-4-((methyl(1-(4-(trifluoromethoxy)phenyl)-1H-1,2,4-triazol-3-yl)amino)methyl)phenyl)-3-(3-(2-isopropyl-5-methylphenyl)-4-oxothiazolidin-2-ylidene)urea] | 50 to 100 | 50 to 100 |
| CCCc1ccc(C)cc1N1C(=O)CS/C1=N\C(=O)Nc1ccc(NCc2ncn(-c3ccc(OC(F)(F)F)cc3)n2)cc1Cl [F41, (Z)-1-(2-Chloro-4-(((1-(4-(trifluoromethoxy)phenyl)-1H-1,2,4-triazol-3-yl)methyl)amino)phenyl)-3-(3-(5-methyl-2-propylphenyl)-4-oxothiazolidin-2-ylidene)urea] | 50 to 100 | 50 to 100 |
| CCCc1ccc(C)cc1N1C(=O)CS/C1=N\C(=O)Nc1ccc(NCc2ncn(-c3ccc(OC(F)(F)F)cc3)n2)c(OC)c1 [F38, (Z)-1-(3-Methoxy-4-(((1-(4-(trifluoromethoxy)phenyl)-1H-1,2,4-triazol-3-yl)methyl)amino)phenyl)-3-(3-(5-methyl-2-propylphenyl)-4-oxothiazolidin-2-ylidene)urea] | 50 to 100 | 50 to 100 |
| Cc1ccc(C(C)C)c(N2C(=O)CS/C2=N\C(=O)Nc2ccc(C(=O)N(C)c3ncn(-c4ccc(OC(F)(F)F)cc4)n3)cc2)c1 [F25, (Z)-4-(3-(3-(2-isopropyl-5-methylphenyl)-4-oxothiazolidin-2-ylidene)ureido)-N-methyl-N-(1-(4-(trifluoromethoxy)phenyl)-1H-1,2,4-triazol-3-yl)benzamide] | 50 to 100 | 50 to 100 |
| CCCc1ccc(C)cc1N1C(=O)CS/C1=N\C(=O)Nc1ccc(NCc2ncn(-c3ccc(OC(F)(F)F)cc3)n2)c(Cl)c1 [F44, (Z)-1-(3-Chloro-4-(((1-(4-(trifluoromethoxy)phenyl)-1H-1,2,4-triazol-3-yl)methyl)amino)phenyl)-3-(3-(5-methyl-2-propylphenyl)-4-oxothiazolidin-2-ylidene)urea] | 50 to 100 | 50 to 100 |
| COCc1ccc(C)cc1N1C(=O)CS/C1=N\C(=O)Nc1ccc(NCc2ncn(-c3ccc(OC(F)(F)F)cc3)n2)cc1Cl [F42, (Z)-1-(2-Chloro-4-(((1-(4-(trifluoromethoxy)phenyl)-1H-1,2,4-triazol-3-yl)methyl)amino)phenyl)-3-(3-(2-(methoxymethyl)-5-methylphenyl)-4-oxothiazolidin-2-ylidene)urea] | 50 to 100 | 50 to 100 |
| Cc1ccc(C(C)C)c(N2C(=O)CS/C2=N\C(=O)Nc2ccc(CNc3ncn(-c4ccc(OC(F)(F)F)cc4)n3)c(Cl)c2)c1 [F7, (Z)-1-(3-Chloro-4-(((1-(4-(trifluoromethoxy)phenyl)-1H-1,2,4-triazol-3-yl)amino)methyl)phenyl)-3-(3-(2-isopropyl-5-methylphenyl)-4-oxothiazolidin-2-ylidene)urea] | 50 to 100 | 50 to 100 |
| COCc1ccc(C)cc1N1C(=O)CS/C1=N\C(=O)Nc1ccc(NCc2ncn(-c3ccc(OC(F)(F)F)cc3)n2)cc1F [F33, (Z)-1-(2-Fluoro-4-(((1-(4-(trifluoromethoxy)phenyl)-1H-1,2,4-triazol-3-yl)methyl)amino)phenyl)-3-(3-(2-(methoxymethyl)-5-methylphenyl)-4-oxothiazolidin-2-ylidene)urea] | 50 to 100 | 50 to 100 |
| Cc1ccc(C(C)C)c(N2C(=O)CS/C2=N\C(=O)Nc2ccc(NC(=O)c3ncn(-c4ccc(OC(F)(F)F)cc4)n3)cc2)c1 [F26, (Z)—N-(4-(3-(3-(2-Isopropyl-5-methylphenyl)-4-oxothiazolidin-2-ylidene)ureido)phenyl)-1-(4-(trifluoromethoxy)phenyl)-1H-1,2,4-triazole-3-carboxamide] | 50 to 100 | 50 to 100 |
| COCc1ccc(C)cc1N1C(=O)CS/C1=N\C(=O)Nc1ccc(CN(C)c2ncn(-c3ccc(OC(F)(F)F)cc3)n2)cc1F [F17, (Z)-1-(2-Fluoro-4-((methyl(1-(4-(trifluoromethoxy)phenyl)-1H-1,2,4-triazol-3-yl)amino)methyl)phenyl)-3-(3-(2-(methoxymethyl)-5-methylphenyl)-4-oxothiazolidin-2-ylidene)urea] | 50 to 100 | 50 to 100 |
| COCc1ccc(C)cc1N1C(=O)CS/C1=N\C(=O)Nc1ccc(CN(C)c2ncn(-c3ccc(OC(F)(F)F)cc3)n2)c(Cl)c1 [F18, (Z)-1-(3-Chloro-4-((methyl(1-(4-(trifluoromethoxy)phenyl)-1H-1,2,4-triazol-3-yl)amino)methyl)phenyl)-3-(3-(2-(methoxymethyl)-5-methylphenyl)-4-oxothiazolidin-2-ylidene)urea] | 0 to 50 | 0 to 50 |
| COC(C)c1ccc(C)cc1N1C(=O)CS/C1=N\C(=O)Nc1ccc(CNc2ncn(-c3ccc(OC(F)(F)F)cc3)n2)cc1 (stereo not shown) [F1, (Z)-1-(3-(2-(1-Methoxyethyl)-5-methylphenyl)-4-oxothiazolidin-2-ylidene)-3-(4-(((1-(4-(trifluoromethoxy)phenyl)-1H-1,2,4-triazol-3-yl)amino)methyl)phenyl)urea] | 50 to 100 | 50 to 100 |
| Cc1ccc(C(C)C)c(N2C(=O)CS/C2=N\C(=O)Nc2ccc(N(C)C(=O)c3ncn(-c4ccc(OC(F)(F)F)cc4)n3)cc2)c1 [F27, (Z)—N-(4-(3-(3-(2-Isopropyl-5-methylphenyl)-4-oxothiazolidin-2-ylidene)ureido)phenyl)-N-methyl-1-(4-(trifluoromethoxy)phenyl)-1H-1,2,4-triazole-3-carboxamide] | 50 to 100 | 50 to 100 |
| COCc1ccc(C)cc1N1C(=O)CS/C1=N\C(=O)Nc1ccc(CN(C)c2ncn(-c3ccc(OC(F)(F)F)cc3)n2)cn1 [F14, (Z)-1-(3-(2-(Methoxymethyl)-5-methylphenyl)-4-oxothiazolidin-2-ylidene)-3-(5-((methyl(1-(4-(trifluoromethoxy)phenyl)-1H-1,2,4-triazol-3-yl)amino)methyl)pyridin-2-yl)urea] | 50 to 100 | 50 to 100 |
| Cc1ccc(C(C)C)c(N2C(=O)CS/C2=N\C(=O)Nc2ccc(CN(C)c3ncn(-c4ccc(OC(F)(F)F)cc4)n3)cn2)c1 [F16, (Z)-1-(3-(2-Isopropyl-5-methylphenyl)-4-oxothiazolidin-2-ylidene)-3-(5-((methyl(1-(4-(trifluoromethoxy)phenyl)-1H-1,2,4-triazol-3-yl)amino)methyl)pyridin-2-yl)urea] | 50 to 100 | 50 to 100 |
| Cc1ccc(C(C)C)c(N2C(=O)CS/C2=N\C(=O)Nc2ccc(NCc3ncn(-c4ccc(OC(F)(F)F)cc4)n3)cn2)c1 [F47, (Z)-1-(3-(2-isopropyl-5-methylphenyl)-4-oxothiazolidin-2-ylidene)-3-(5-(((1-(4-(trifluoromethoxy)phenyl)-1H-1,2,4-triazol-3-yl)methyl)amino)pyridin-2-yl)urea] | 50 to 100 | 50 to 100 |
| CCCc1ccc(C)cc1N1C(=O)CS/C1=N\C(=O)Nc1ccc(CNc2ncn(-c3ccc(OC(F)(F)F)cc3)n2)cn1 [F12, (Z)-1-(3-(5-Methyl-2-propylphenyl)-4-oxothiazolidin-2-ylidene)-3-(5-(((1-(4-(trifluoromethoxy)phenyl)-1H-1,2,4-triazol-3-yl)amino)methyl)pyridin-2-yl)urea] | 50 to 100 | 50 to 100 |
